Here are results for 3 molecules from article PMC9697947 (Viruses, 2022).

Molecules are shown by their SMILES.

Series [1] has as its system eHEV-nanoKAZ. Nature of the series: Time-of-addition: viral attachment assay (intracellular luciferase activity). As to conditions: PLC/PRF/5 cells. Format: cell-based, Hepatitis E virus.
Series [2] has as its system eHEV-nanoKAZ. Nature of the series: Time-of-addition: viral internalization assay. As to conditions: PLC/PRF/5 cells. Format: cell-based, Hepatitis E virus.
Series [3] has as its system eHEV-3 (JE03-1760F). Nature of the series: Immunofluorescence assay of HEV ORF2 protein expression in PLC/PRF/5 cells. Format: cell-based, Hepatitis E virus genotype 3. As to conditions: day 4 post-inoculation.
Details of series [4]: method as in ref 47 = [47]. Particulars: Antiretroviral Pregnancy Registry (APR); cited from earlier work.
In series [5] the test system is HEV. More on the design: method as in ref 31 = [31]. Particulars: cited from earlier work.
Series [6] relates to eHEV-nanoKAZ. In words: microbe, parasite or virus in culture. As to conditions: Hepatitis E virus, PLC-PRF-5, read-out: Inhibition (%) of intracellular luciferase activity.
In series [7] the test system is eHEV-nanoKAZ. Nature of the series: Time-of-addition: viral inactivation assay (intracellular luciferase activity). As to conditions: PLC/PRF/5 cells, 4 days post-inoculation.
Series [8] has as its system eHEV-3 (JE03-1760F). Nature of the series: HEV growth in PLC/PRF/5 cells inoculated with eHEV-3. It counts as cell-based, Hepatitis E virus genotype 3. As to conditions: 48 dpi.
Series [9] deals with eHEV-4 (HE-JF5/15F). In words: HEV growth in PLC/PRF/5 cells inoculated with eHEV-4. It counts as cell-based, Hepatitis E virus genotype 4. As to conditions: 48 dpi.
Series [10] concerns eHEV-3 (JE03-1760F). Nature of the series: HEV growth in PLC/PRF/5 cells robustly producing eHEV-3. Format: cell-based, Hepatitis E virus genotype 3.
For series [11], the system named is eHEV-4 (HE-JF5/15F). Nature of the series: HEV growth in PLC/PRF/5 cells robustly producing eHEV-4. It counts as cell-based, Hepatitis E virus genotype 4.
Series [12] relates to HEV. Particulars: ribavirin monotherapy; undetectable serum HEV RNA at least six months after cessation; cited from earlier work.
The mark [13] stands for this setting: ribavirin 40 μM, mean of triplicate wells.
Where [14] appears, read: ribavirin 40 μM, 60 days after the start of drug treatment, mean of triplicate wells.
Where [15] appears, read: ribavirin alone 40 µM, day 60 after the start of drug treatment.

Consider `CC(C)c1nc(CN(C)C(=O)N[C@H](C(=O)N[C@@H](Cc2ccccc2)C[C@H](O)[C@H](Cc2ccccc2)NC(=O)OCc2cncs2)C(C)C)cs1` [Ritonavir, ritonavir], for which the intracellular luciferase activity in [1] (ritonavir 20 µM during attachment (4 °C 1 h, 37 °C 1 h), compared to untreated control) came out at 100.4%. For the same molecule, in series [2] (ritonavir 20 µM added after attachment, 37 °C 2 h, compared to untreated control, p = 0.0036), the intracellular luciferase activity was found to be 9.6%. For the same molecule, the “expression of ORF2 protein” value in series [3] (ritonavir 20 µM during 4 h inoculation) was “undetectable”. Further, the “risk of human teratogenicity” value in series [4] is listed as “no evidence of an increased risk of human teratogenicity”. Besides, in [5], the “inhibition of HEV growth in cultured cells” value was “potent inhibition of HEV growth in cultured cells”. In series [6], the inhibition (in general, the percentage by which the read-out fell short of the control) at 0.05 µM worked out at 18.1%; the inhibition at 0.1 µM amounted to 29.1%; the inhibition at 0.5 µM came out at 59.6%; the inhibition at 1 µM was found to be 71.6%. For the same molecule, in [6], the inhibition at 5 µM is 89.7% and the inhibition at 35 µM amounted to 95.9%. Besides, the intracellular luciferase activity in [7] (ritonavir 20 µM pre-incubated with eHEV-nanoKAZ 1 h 37 °C, compared to untreated control) came to 94.3%.
`NC(=O)c1ncn([C@@H]2O[C@H](CO)[C@@H](O)[C@H]2O)n1` [Ribavirin, ribavirin]: the intracellular luciferase activity result in series [1] (ribavirin 40 µM during attachment), in [2] (ribavirin 40 µM added after attachment) and in series [7] (ribavirin 40 µM pre-incubated with eHEV-nanoKAZ) was “did not decrease intracellular luciferase activity” in each case. Also, in [3] (ribavirin 40 µM during 4 h inoculation), the “expression of ORF2 protein” value is listed as “detectable”. Also, the “Intracellular HEV RNA” value in [8] (setting [13]) is given as 1.2 × 10^8 copies/well (mean); in [9] (setting [13]) it was 4.4 × 10^7 copies/well (mean); in series [10] (setting [14]), 1.6 × 10^7 copies/well (mean); in series [11] (setting [14]), 2.3 × 10^7 copies/well (mean). Moreover, the “HEV RNA titer in culture supernatants” value in series [8] (ribavirin monotherapy 40 µM) is 2.0 × 10^7 copies/mL; in [9] (ribavirin monotherapy 40 µM) it was 4.3 × 10^7 copies/mL; in series [10] (setting [15]) it was 2.7 × 10^6 copies/mL; in series [11] (setting [15]), 2.9 × 10^7 copies/mL. For the same molecule, the “sustained virological response (SVR), patients achieving” value in series [12] is given as “approximately 80%”. For the same molecule, the inhibition at 1 µM in [6] was determined as 20.4%. Moreover, in series [6], the inhibition at 5 µM was 24.2%. Besides, the inhibition at 10 µM in series [6] came to 33.3%. Besides, the inhibition at 20 µM in series [6] amounted to 58%. Moreover, in [6], the inhibition at 40 µM was found to be 79.6%. The inhibition at 80 µM in series [6] was 91%.
Regarding `OC[C@H]1O[C@@](CO)(O[C@H]2O[C@H](CO)[C@@H](O)[C@H](O)[C@H]2O)[C@@H](O)[C@@H]1O` [Sucrose], the intracellular luciferase activity in series [2] (sucrose 250 mM added after attachment, 37 °C 2 h, compared to untreated control, p = 0.0033) was 14.9%. The “expression of ORF2 protein” value in series [3] (sucrose 250 mM during 4 h inoculation) was “undetectable”.
